# Target: T1, androgen receptor (Homo sapiens, UniProt P10275)
# T1 sequence (P10275 1-920 Q868H): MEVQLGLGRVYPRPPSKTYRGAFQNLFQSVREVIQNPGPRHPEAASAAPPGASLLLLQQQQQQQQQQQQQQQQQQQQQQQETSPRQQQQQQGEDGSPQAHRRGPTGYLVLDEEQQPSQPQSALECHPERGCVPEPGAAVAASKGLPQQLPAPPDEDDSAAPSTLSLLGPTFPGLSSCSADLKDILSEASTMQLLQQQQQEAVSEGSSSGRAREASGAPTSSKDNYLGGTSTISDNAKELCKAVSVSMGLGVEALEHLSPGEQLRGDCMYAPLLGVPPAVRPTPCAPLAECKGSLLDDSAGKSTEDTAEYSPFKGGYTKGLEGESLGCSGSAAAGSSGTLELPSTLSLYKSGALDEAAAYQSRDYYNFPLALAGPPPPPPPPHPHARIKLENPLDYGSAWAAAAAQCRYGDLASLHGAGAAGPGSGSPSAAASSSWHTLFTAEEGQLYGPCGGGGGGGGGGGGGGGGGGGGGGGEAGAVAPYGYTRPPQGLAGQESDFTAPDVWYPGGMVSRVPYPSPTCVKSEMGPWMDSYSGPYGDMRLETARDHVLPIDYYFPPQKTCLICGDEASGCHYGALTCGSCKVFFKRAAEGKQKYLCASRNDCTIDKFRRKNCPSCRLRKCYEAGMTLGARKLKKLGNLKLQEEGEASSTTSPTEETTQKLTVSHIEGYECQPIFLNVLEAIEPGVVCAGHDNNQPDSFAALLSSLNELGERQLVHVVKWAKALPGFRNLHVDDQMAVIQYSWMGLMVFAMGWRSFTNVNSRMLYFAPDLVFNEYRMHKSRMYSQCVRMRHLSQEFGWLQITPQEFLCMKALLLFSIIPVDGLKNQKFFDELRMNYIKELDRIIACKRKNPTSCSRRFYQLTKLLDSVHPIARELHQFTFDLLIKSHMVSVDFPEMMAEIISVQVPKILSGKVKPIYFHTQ
# Test: AR Antagonist Cell Assay (MMTV-luciferase reporter, DHT-induced)
# Type: cell-based
# Conditions: MDA-MB453-MMTV clone 54-19 cells, 100 pM DHT, 17 hr
# Procedure: The compounds ability to antagonize the effects of androgen on the androgen receptor were determined in the protocol described immediately below.
# Experimental Procedure for AR Antagonist Cell Assay
# Cell line: MDA-MB453-MMTV clone 54-19. This cell line is a stable transfected cell line with MDA-MB453 cell background (human breast tumor cell expressing high level of androgen receptor). A MMTV minimal promoter containing ARE was first cloned in front of a firefly luciferase reporter gene. Then the cascade was cloned into transfection vector pUV120puro. Electroporation method was used for transfecting MDA-MB-453 cell. Puromycin resistant stable cell line was selected.
# Cell Culture Media and Reagents:
# Culture medium: DMEM (high glucose, Gibco cat #: 11960-044), 10% FBS, and 1% L-glutamine
# Plating medium: DMEM (phenol red free), 10% charcoal treated HyClone serum, 1% L-glutamine
# Assay medium: DMEM (phenol red free), 1% charcoal treated HyClone serum, 1% L-glutamine, and 1% penicillin/streptomycin
# 3× luciferase buffer: 2% beta-mercaptoethanol, 0.6% ATP, 0.0135% luciferine in cell lysis buffer
# • 1. Cells are maintained in culture medium, splitting cells when they reach 80–90% confluence • 2. To test compounds, 10,000 cells/well are plated to opaque 96 cell culture plate in 100 ul/well plating medium, culture for overnight at 37° C. in cell culture incubator • 3. Carefully remove plating medium, then add 80 ul/well of pre-warmed assay medium, add 10 ul/well testing compound (final concentration at 10 uM or 1 uM), incubate at 37° C. for 30 minutes • 4. Add 10 ul/well freshly prepared DHT (final concentration at 100 pM) to each well, incubate at 37° C. for 17 hr (overnight) • 5. Add 50 ul/well 3× luciferase buffer, incubate at room temperature for 5 minutes, then count on Luminometer The fold induction over background by 100 pM DHT in the absence of testing compounds is standardized as 100% and experimental result is expressed as percentage of inhibition by testing compounds. TABLE3
row,Structure (SMILES),IC50 [µM]
1,"Cc1cccc(C)c1NS(=O)(=O)c1ccc2[nH]c(=O)cc(C(F)(F)F)c2c1 [Example 90, 2-Oxo-4-trifluoromethyl-1,2-dihydroquinoline-6-sulfonic acid(2,6-dimethylphenyl)amide]",> 10
2,"Cn1c(=O)cc(C(F)(F)F)c2cc(S(=O)(=O)Nc3cc(C(C)(C)C)cc(C(C)(C)C)c3)ccc21 [Example 45, 1-Methyl-2-oxo-4-trifluoromethyl-1,2-dihydroquinoline-6-sulfonicacid (3,5-di-tert-butylphenyl)amide]",> 10
3,"Cc1cc(=O)oc2cc(NS(=O)(=O)c3ccc4c(c3)c(C(F)(F)F)cc(=O)n4C)ccc12 [Example 40, 1-Methyl-2-oxo-4-trifluoromethyl-1,2-dihydroquinoline-6-sulfonic(4-methyl-2-oxo-2H-chromen-7-yl)amide]",> 10
4,"Cc1ccc(-c2ccccc2)cc1NS(=O)(=O)c1ccc2[nH]c(=O)cc(C(F)(F)F)c2c1 [Example 99, 2-Oxo-4-trifluoromethyl-1,2-dihydroquinoline-6-sulfonic acid(4-methylbiphenyl-3-yl)amide]",> 10
5,"O=c1cc(C(F)(F)F)c2cc(S(=O)(=O)NCc3ccc(F)cc3Cl)ccc2[nH]1 [Example 140, 2-Oxo-4-trifluoromethyl-1,2-dihydroquinoline-6-sulfonic acid2-chloro-4-fluorobenzylamide]",5.65
6,"O=c1cc(C(F)(F)F)c2cc(S(=O)(=O)Nc3cccc(OCc4ccccc4)c3)ccc2[nH]1 [Example 114, 2-Oxo-4-trifluoromethyl-1,2-dihydroquinoline-6-sulfonic acid(3-benzyloxyphenyl)amide]",> 10
7,"CC(CNS(=O)(=O)c1ccc2[nH]c(=O)cc(C(F)(F)F)c2c1)c1ccccc1 (stereo not shown) [Example 131, 2-Oxo-4-trifluoromethyl-1,2-dihydroquinoline-6-sulfonic acid(2-phenylpropyl)amide]",0.35
8,"O=c1cc(C(F)(F)F)c2cc(S(=O)(=O)Nc3cccc(C(F)(F)F)c3)ccc2[nH]1 [Example 109, 2-Oxo-4-trifluoromethyl-1,2-dihydroquinoline-6-sulfonic acid(3-trifluoromethylphenyl)amide]",0.21
9,"COc1ccccc1CCNS(=O)(=O)c1ccc2[nH]c(=O)cc(C(F)(F)F)c2c1 [Example 135, 2-Oxo-4-trifluoromethyl-1,2-dihydroquinoline-6-sulfonic acid[2-(2-methoxyphenyl)ethyl]amide]",0.17
10,"CC(C)(C)CCNS(=O)(=O)c1ccc2[nH]c(=O)cc(C(F)(F)F)c2c1 [Example 122, 2-Oxo-4-trifluoromethyl-1,2-dihydroquinoline-6-sulfonic acid(3,3-dimethylbutyl)amide]",1.03
11,"O=c1cc(C(F)(F)F)c2cc(S(=O)(=O)Nc3cccnc3)ccc2[nH]1 [Example 81, 2-Oxo-4-trifluoromethyl-1,2-dihydroquinoline-6-sulfonic acidpyridin-3-ylamide]",> 10
12,"Cc1cc(NS(=O)(=O)c2ccc3[nH]c(=O)cc(C(F)(F)F)c3c2)n(C)n1 [Example 85, 2-Oxo-4-trifluoromethyl-1,2-dihydroquinoline-6-sulfonic acid(2,5-dimethyl-2H-pyrazol-3-yl)amide]",> 10
13,"Cc1ccc(CNS(=O)(=O)c2ccc3[nH]c(=O)cc(C(F)(F)F)c3c2)c(F)c1F [Example 145, 2-Oxo-4-trifluoromethyl-1,2-dihydroquinoline-6-sulfonic acid2,3-difluoro-4-methylbenzylamide]",> 10
14,"CCCCN(CCCC)S(=O)(=O)c1ccc2[nH]c(=O)cc(C(F)(F)F)c2c1 [Example 68, 2-Oxo-4-trifluoromethyl-1,2-dihydroquinoline-6-sulfonic aciddibutylamide]",0.41
15,"O=c1cc(C(F)(F)F)c2cc(S(=O)(=O)NCCc3cccs3)ccc2[nH]1 [Example 133, 2-Oxo-4-trifluoromethyl-1,2-dihydroquinoline-6-sulfonic acid(2-thiophen-2-ylethyl)amide]",1.9
16,"O=c1cc(C(F)(F)F)c2cc(S(=O)(=O)NCC(c3ccccc3)c3ccccc3)ccc2[nH]1 [Example 159, 2-Oxo-4-trifluoromethyl-1,2-dihydroquinoline-6-sulfonic acid(2,2-diphenylethyl)amide]",1.56

# The next lines start with the values.
row,IC50 [µM],Structure (SMILES)
1,> 10,"Cc1ccccc1CNS(=O)(=O)c1ccc2c(c1)c(C(F)(F)F)cc(=O)n2C [Example 52, 1-Methyl-2-oxo-4-trifluoromethyl-1,2-dihydroquinoline-6-sulfonicacid 2-methylbenzylamide]"
2,> 10,"Cn1c(=O)cc(C(F)(F)F)c2cc(S(=O)(=O)NCCCCc3ccccc3)ccc21 [Example 57, 1-Methyl-2-oxo-4-trifluoromethyl-1,2-dihydroquinoline-6-sulfonicacid (4-phenylbutyl)amide]"
3,4.23,"CC(=O)c1cccc(NS(=O)(=O)c2ccc3c(c2)c(C(F)(F)F)cc(=O)n3C)c1 [Example 24, 1-Methyl-2-oxo-4-trifluoromethyl-1,2-dihydroquinoline-6-sulfonicacid (3-acetylphenyl)amide]"
4,1.32,"Cn1c(=O)cc(C(F)(F)F)c2cc(S(=O)(=O)Nc3ccc(Cl)cc3)ccc21 [Example 31, 1-Methyl-2-oxo-4-trifluoromethyl-1,2-dihydroquinoline-6-sulfonicacid (4-chlorophenyl)amide]"
5,> 10,"Cn1c(=O)cc(C(F)(F)F)c2cc(S(=O)(=O)NCCSCc3c(F)cccc3Cl)ccc21 [Example 63, 1-Methyl-2-oxo-4-trifluoromethyl-1,2-dihydroquinoline-6-sulfonicacid [2-(2-chloro-6-fluorobenzylsulfanyl)ethyl]-amide]"
6,2.73,"CC(CNS(=O)(=O)c1ccc2c(c1)c(C(F)(F)F)cc(=O)n2C)c1ccccc1 (stereo not shown) [Example 56, 1-Methyl-2-oxo-4-trifluoromethyl-1,2-dihydroquinoline-6-sulfonicacid (2-phenylpropyl)amide]"
7,2.72,"COc1cc(NS(=O)(=O)c2ccc3c(c2)c(C(F)(F)F)cc(=O)n3C)cc(OC)c1 [Example 36, 1-Methyl-2-oxo-4-trifluoromethyl-1,2-dihydroquinoline-6-sulfonicacid (3,5-dimethoxyphenyl)-amide]"
8,4.04,"Cn1c(=O)cc(C(F)(F)F)c2cc(S(=O)(=O)Nc3ccc4c(c3)OCO4)ccc21 [Example 26, 1-Methyl-2-oxo-4-trifluoromethyl-1,2-dihydroquinoline-6-sulfonicacid benzo[1,3]dioxol-5-ylamide]"
9,0.99,"Cn1c(=O)cc(C(F)(F)F)c2cc(S(=O)(=O)Nc3ccc(CC#N)cc3)ccc21 [Example 21, 1-Methyl-2-oxo-4-trifluoromethyl-1,2-dihydroquinoline-6-sulfonicacid (4-cyanomethylphenyl)amide]"
10,> 10,"Cc1ccc(F)cc1NS(=O)(=O)c1ccc2c(c1)c(C(F)(F)F)cc(=O)n2C [Example 30, 1-Methyl-2-oxo-4-trifluoromethyl-1,2-dihydroquinoline-6-sulfonicacid (5-fluoro-2-methylphenyl)amide]"
11,> 10,"Cn1c(=O)cc(C(F)(F)F)c2cc(S(=O)(=O)Nc3ccccc3CO)ccc21 [Example 19, 1-Methyl-2-oxo-4-trifluoromethyl-1,2-dihydroquinoline-6-sulfonicacid(2-hydroxymethylphenyl)amide]"
12,> 10,"CSc1n[nH]c(NS(=O)(=O)c2ccc3c(c2)c(C(F)(F)F)cc(=O)n3C)c1C#N [Example 35, 1-Methyl-2-oxo-4-trifluoromethyl-1,2-dihydroquinoline-6-sulfonicacid (4-cyano-5-methylsulfanyl-2H-pyrazol-3-yl)amide]"

# Source: patent US7009052B2, “Sulfonamide derivatives” (Warner Lambert Company LLC, priority 2003, dated 2006)
